14 compounds from US5773646A, “Meta-substituted phenylene derivatives” (G. D. Searle & Co., priority 1997, dated 1998) can be followed below.

For experiment [1], the target named is T1, Human vitronectin receptor (αv β3) (Homo sapiens, UniProt P05106+P06756).
T1 construct: Human vitronectin receptor(αv β3) was purified from human placenta; from tissue; host or cells: human placenta
In words: Vitronectin adhesion assay (solid phase receptor assay, biotinylated vitronectin competition). The class given is binding. The procedure: VITRONECTIN ADHESION ASSAY Human vitronectin receptor(αv β3) was purified from human placenta as previously described [Pytela et al., Methods in Enzymology, 144:475-489 (1987)). Human vitronectin was purified from fresh frozen plasma as previously described [Yatohgo et al., Cell Structure and Function, 13:281-292 (1988)]. Biotinylated human vitronectin was prepared by coupling NHS-biotin from Pierce Chemical Company (Rockford, Ill.) to purified vitronectin as previously described [Charo et al., J. Biol. Chem., 266(3):1415-1421 (1991)]. Assay buffer, OPD substrate tablets, and RIA grade BSA were obtained from Sigma (St. Louis, Mo.). Anti-biotin antibody was obtained from Calbiochem (La Jolla, Calif.). Linbro microtiter plates were obtained from Flow Labs (McLean, Va.). ADP reagent was obtained from Sigma (St. Louis, Mo.). Solid Phase Receptor Assays This assay was essentially the same as previously reported [Niiya et al., Blood, 70:475-483 (1987)]. The purified human vitronectin receptor (αv β3) was diluted from stock solutions to 1.0 μg/mL in Tris-buffered saline containing 1.0 mM Ca^++, Mg^++, and Mn^++, pH 7.4 (TBS^+++). The diluted receptor was immediately transferred to Linbro microtiter plates at 100 μL/well (100 ng receptor/well). The plates were sealed and incubated overnight at 4° C. to allow the receptor to bind to the wells. All remaining steps were at room temperature. The assay plates were emptied and 200 μL of 1% RIA grade BSA in TBS^+++ (TBS^+++ /BSA) were added to block exposed plastic surfaces. Following a 2 hour incubation, the assay plates were washed with TBS^+++ using a 96 well plate washer. Logarithmic serial dilution of the test compound and controls were made starting at a stock concentration of 2 mM and using 2 nM biotinylated vitronectin in TBS^+++ /BSA as the diluent. This premixing of labeled ligand with test (or control) ligand, and subsequent transfer of 50 μL aliquots to the assay plate was carried out with a CETUS Propette robot; the final concentration of the labeled ligand was 1 nM and the highest concentration of test compound was 1.0×10^-4 M. The competition occurred for two hours after which all wells were washed with a plate washer as before. Affinity purified horseradish peroxidase labeled goat antibiotin antibody was diluted 1:3000 in TBS^+++ /BSA and 125 μL were added to each well. After 30 minutes, the plates were washed and incubated with OPD/H2 O2 substrate in 100 mM/L Citrate buffer, pH 5.0. The plate was read with a microtiter plate reader at a wavelength of 450 nm and when the maximum-binding control wells reached an absorbance of about 1.0, the final A450 were recorded for analysis. The data were analyzed using a macro written for use with the EXCEL™ spreadsheet program. The mean, standard deviation, and %CV were determined for duplicate concentrations. The mean A450 values were normalized to the mean of four maximum-binding controls (no competitor added)(B-MAX). The normalized values were subjected to a four parameter curve fit algorithm [Rodbard et al., Int.

Experiment [2] deals with T2, Human fibrinogen receptor (αIIb β3) (Homo sapiens, UniProt P05106+P08514).
T2 construct: Human fibrinogen receptor (αIIb β3) was purified from outdated platelets; from tissue; host or cells: outdated human platelets
In words: Purified IIb/IIIa receptor assay (solid phase receptor assay, biotinylated vitronectin competition). Conditions: inhibition of 50% of the maximum binding of biotinylated vitronectin; 1 nM labeled ligand, 2 hours, room temperature, highest concentration of test compound 1.0×10^-4 M. The source says:
PURIFIED IIb/IIIa RECEPTOR ASSAY Human fibrinogen receptor (αIIb β3) was purified from outdated platelets. (Pytela, R., Pierschbacher, […]., Suzuki, S., and […] acid adhesion receptors", Methods in Enzymology 144(1987):475-489.) Human vitronectin was purified from fresh frozen plasma as described in Yatohgo, T., Izumi, M., Kashiwagi, H., and Hayashi, M., "Novel purification of vitronectin from human plasma by heparin affinity chromatography," Cell Structure and Function 13(1988):281-292. Biotinylated human vitronectin was prepared by coupling NHS-biotin from Pierce Chemical Company (Rockford, Ill.) to purified vitronectin as previously described. (Charo, […]., Phillips, D. R., Hsu, M. A., Scarborough, R. M., "Inhibition of fibrinogen binding to GP IIb/IIIa by a GP IIIa peptide", J. Biol. Chem. 266(3)(1991):1415-1421.) Assay buffer, OPD substrate tablets, and RIA grade BSA were obtained from Sigma (St. Louis, Mo.). Anti-biotin antibody was obtained from Calbiochem (La Jolla, Calif.). Linbro microtiter plates were obtained from Flow Labs (McLean, Va.). ADP reagent was obtained from Sigma (St. Louis, Mo.). Solid Phase Receptor Assays This assay is essentially the same reported in […]., Bader, R., Byers-Ward, […]., Plow, E. F. and Ruggeri, Z. M., "Increased surface expression of the membrane glycoprotein IIb/IIIa complex induced by platelet activation: Relationships to the binding of fibrinogen and platelet aggregation", Blood 70(1987):475-483. The purified human fibrinogen receptor (αIIb β3) was diluted from stock solutions to 1.0 μg/mL in Tris-buffered saline containing 1.0 mM Ca^++, Mg^++, and Mn^++, pH 7.4 (TBS^+++). The diluted receptor was immediately transferred to Linbro microtiter plates at 100 μL/well (100 ng receptor/well). The plates were sealed and incubated overnight at 4° C. to allow the receptor to bind to the wells. All remaining steps were at room temperature. The assay plates were emptied and 200 μL of 1% RIA grade BSA in TBS^+++ (TBS^+++ /BSA) were added to block exposed plastic surfaces. Following a 2 hour incubation, the assay plates were washed with TBS^+++ using a 96 well plate washer. Logarithmic serial dilution of the test compound and controls were made starting at a stock concentration of 2 mM and using 2 nM biotinylated vitronectin in TBS^+++ /BSA as the diluent. This premixing of labeled ligand with test (or control) ligand, and subsequent transfer of 50 μL aliquots to the assay plate was carried out with a CETUS Propette robot; the final concentration of the labeled ligand was 1 nM and the highest concentration of test compound was 1.0×10^-4 M. The competition occurred for two hours after which all wells were washed with a plate washer as before. Affinity purified horseradish peroxidase labeled goat antibiotin antibody was diluted 1:3000 in TBS^+++ /BSA and 125 μL were added to each well. After 30 minutes, the plates were washed and incubated with […]/H2 O2 substrate in 100 mM/L citrate buffer, pH 5.0. The plate was read with a microtiter plate reader at a wavelength of 450 nm and when the maximum-binding control wells reached an absorbance of about 1.0, the final A450 were recorded for analysis. The data were analyzed using a macro written for use with the EXCELTM spreadsheet program. The mean, standard deviation, and %CV were determined for duplicate concentrations. The mean A450 values were normalized to the mean of four maximum-binding controls (no competitor added)(B-MAX). The normalized values were subjected to a four parameter curve fit algorithm, [Robard et al., Int.

Where [3] appears, read: inhibition of 50% of the maximum binding of biotinylated vitronectin, 1 nM labeled ligand, 2 hours, room temperature, highest concentration of test compound 1.0×10^-4 M, read-out: AvB3 IC50.

Where a name gives a salt, the structure may show the parent alone. Read-outs that look alike come from different tables or passages of the source.

Consider “3-[[[[3-[(aminothioxomethyl)amino]phenyl]carbonyl]amino]methyl]benzenepropanoic acid [Example 25]”, for which the IC50 in experiment [1] (setting [3]) was 7460 nM; in experiment [2] it was 26.9 µM.

As to `CCC(CC(=O)O)c1cccc(CNC(=O)c2ccc(Cl)c(NC(=N)N)c2)c1` (racemic) [Example 58, (±) 3-[[[[3-[(aminoiminomethyl)amino]-4-chlorophenyl]carbonyl]amino]methyl]-β-ethylbenzenepropanoic acid, trifluoroacetate salt], the results for the IC50 in experiment [1] (setting [3]) and in experiment [2] were 11.6 nM and 5.18 µM, respectively. As to `CCC(CC(=O)O)c1cccc(CNC(=O)c2cc(NC(=N)N)cc(C(F)(F)F)c2)c1` (racemic) [Example 59, (±) 3-[[[[3-[(aminoiminomethyl)amino]-5(trifluoromethyl)phenyl]carbonyl]amino]methyl]-β-ethylbenzenepropanoic acid, trifluoroacetate salt], the concentration for half-maximal inhibition (IC50) in experiment [1] (setting [3]) is 3.88 nM; in experiment [2], 3.13 µM. In the same order, the values of `N=C(N)Nc1cccc(C(=O)NCc2cccc(C(CC(=O)O)c3cc(F)cc(F)c3)c2)c1` (racemic) [Example 60, (±) β-[3-[[[[3-[(aminoiminomethyl)amino]phenyl]carbonyl]amino]methyl]phenyl]-3,5-difluorobenzenepropanoic acid, trifluoroacetate salt] are 4.58 nM and 0.286 µM. As to `N=C(N)Nc1cc(C(=O)NCc2cccc(C(CC(=O)O)c3cc(F)cc(F)c3)c2)cc(C(F)(F)F)c1` (racemic) [Example 61, (±) β-[3-[[[[3-[(aminoiminomethyl)amino]-5-(trifluoromethyl)phenyl]carbonyl]amino]methyl]phenyl]-3,5-difluorobenzenepropanoic acid, trifluoroacetate salt hydrate], the IC50 was found to be 1.33 nM in experiment [1] (setting [3]) and 0.712 µM in experiment [2].

On to `O=C(O)CC(c1cc(F)cc(F)c1)c1cccc(CNC(=O)c2cccc(NC3=NCCCN3)c2)c1` (racemic) [Example 62, (±) 3,5-difluoro-β-[3-[[[[3-[(1,4,5,6-tetrahydropyrimidin-2-yl)amino]phenyl]carbonyl]amino]methyl]phenyl]benzenepropanoic acid, trifluoroacetate salt monohydrate], for which the half-inhibitory concentration (IC50) in experiment [1] (setting [3]) worked out at 0.87 nM; in experiment [2], 1.9 µM. The matching figures for `COc1ccccc1C(CC(=O)O)c1cccc(CNC(=O)c2cccc(NC(=N)N)c2)c1` (racemic) [Example 63, (±) -[3-[[[[3-[(aminoiminomethyl)amino]phenyl]carbonyl]amino]methyl]phenyl]-2-methoxybenzene propanoic acid, trifluoroacetate salt hydrate]: 23.5 nM and 0.454 µM. In the same order, the values of `CC(CC(=O)O)c1cccc(CNC(=O)c2cccc(NC(N)=NC#N)c2)c1` (racemic) [Example 64, (±) 3[[[[3-[[amino(cyanoimino)methyl]amino]phenyl]carbonyl]amino]methyl]-β-methylbenzenepropanoic acid] are 199 nM and 26.4 µM. The matching figures for `CC(CC(=O)O)c1cccc(CNC(=O)c2cccc(NC(N)=NC(N)=O)c2)c1` (racemic) [Example 65, (±) 3[[[[3-[[amino[(aminocarbonyl)imino]methyl]amino]phenyl]carbonyl]amino]methyl]-β-methylbenzenepropanoic acid, trifluoroacetate salt]: 23 nM and 4.01 µM. Consider `CC(CC(=O)O)c1cccc(CNC(=O)c2cccc(NC3=NC(=O)CN3)c2)c1` (racemic) [Example 67, (±) 3-[[[[3-[(4,5-dihydro-4-oxo-1H-imidazol-2-yl)amino]phenyl]carbonyl]amino]methyl]-β-methylbenzenepropanoic acid], for which the IC50 was found to be 122 nM in experiment [1] (setting [3]) and 12.9 µM in experiment [2].

`CC(CC(=O)O)c1cccc(CNC(=O)c2cccc(Nc3nc4ccccc4[nH]3)c2)c1` (racemic) [Example 69, (±) 3-[[[[3-[(1H-benzimidazol-2-yl)amino]phenyl]carbonyl]amino]methyl]-β-methyl benzenepropanoic acid]: the half-inhibitory concentration (IC50) in experiment [1] (setting [3]) was determined as 425 nM; in experiment [2], 10.1 µM. In the case of `COc1ccc2[nH]c(Nc3cccc(C(=O)NCc4cccc(C(C)CC(=O)O)c4)c3)nc2c1` (racemic) [Example 70, (±) 3-[[[[3-[(5-methoxy-1H-benzimidazol-2-yl)amino]phenyl]carbonyl]amino]methyl]-β-methyl benzenepropanoic acid, trifluoroacetate salt], the values for the IC50 in experiment [1] (setting [3]) and in experiment [2] were 1710 nM and 7.66 µM, respectively.

In the case of `N=C(N)Nc1cccc(S(=O)(=O)Nc2cccc(C(CC(=O)O)c3ccccc3)c2)c1` (stereo not drawn) [Example 1, 3-[[[3-[(aminoiminomethyl)amino]phenyl]sulfonyl]amino]-β-phenylbenzenepropanoic acid, trifluoroacetate salt], the half-inhibitory concentration (IC50) in experiment [1] (setting [3]) was found to be 16.7 nM; in experiment [2], 0.625 µM. As for `N=C(N)NCCCCC(=O)NCC(=O)NC(CC(=O)O)c1cccnc1` (stereo not drawn) [β-[[2-[[5-[(aminoiminomethyl)amino]-1-oxopentyl]amino]-1-oxoethyl]amino]-3-pyridinepropanoic acid], the IC50 in experiment [1] (positive control included on each plate, range given in text, read-out: αv β3 antagonist IC50 (positive control)) is 3 to 10 nM.

A word on the IC50: it is the concentration at which inhibition is half-maximal.
